Results as given in US20100048511A1, “COMPLEX FORMULATION FOR PREVENTING OR TREATING OSTEOPOROSIS WHICH COMPRISES SOLID DISPERSION OF VITAMIN D OR ITS DERIVATIVE AND BISPHOSPHONATE” (priority 2006, published 2010).

Tests used:
[1] = Stability test of the solid dispersion comprising vitamin D (cholecalciferol content by HPLC, 60° C. dried oven); assay type: physicochemical
Protocol: The time-dependent change of the cholecalciferol content of each test material was analyzed using the solid dispersions prepared in Comparative Example 2 (0.07 mg of cholecalciferol) and Examples 1 to 4 as test materials, during the period of incubating the test materials in a 60° C. dried oven.
Each test material was pretreated as follows, before the analysis of cholecalciferol.
Each test material was taken in the amount corresponding to about 28 mg cholecalciferol and placed in a 50 ml flask, 5 ml of 0.01 M HCl was added thereto, the mixture was ultrasonicated for 3 minutes, and the flask was filled with ethanol. 15 ml of the resulting solution was mixed with 5 ml of purified water and 20 ml of n-hexane for 5 minutes, and centrifuged at 2000 rpm for 5 minutes. 10 ml of the supernatant was harvested, evaporated under a reduced pressure, and 2 ml of n-hexane was added thereto. The cholecalciferol content of each test material was analyzed by HPLC under the following conditions. The results are shown in Table 7. • Column: silica column (5 μm, 4.6 mm×250 mm) • Mobile phase: (chloroform: n-hexane: tetrahydrofuran=650:350:10 (v/v)) • Injecting volume: 100 μl • Flow rate: 1.0 ml/min • Detector: ultraviolet spectrophotometer (wavelength: 254 nm; L-7400, HITACHI, Japan)

[2] = preserved at 40° C. for 4 days; cited from earlier work

| SMILES | cholecalciferol content ([1]; 2 weeks) | cholecalciferol content ([1]; 4 weeks) | cholecalciferol content ([1]; incubation time 0) | content of vitamin D3 in the formulation, of the original content [2] |
| --- | --- | --- | --- | --- |
| C=C1CC[C@H](O)C/C1=C/C=C1\CCC[C@]2(C)[C@@H]([C@H](C)CCCC(C)C)CC[C@@H]12 [Comparative Example 2, cholecalciferol] | 3.3% | 0.0% | 100% |  |
| C=C1CC[C@H](O)C/C1=C/C=C1\CCC[C@]2(C)[C@@H]([C@H](C)CCCC(C)C)CC[C@@H]12 [vitamin D3, cholecalciferol] |  |  |  | about 86.3% |
